Drawing on PubChem BioAssay (NCI), this text covers TGI for twelve molecules.

Structures are written as SMILES.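 Five concentrations, 48 hours, 96-well plates. TGI: total growth inhibition.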

Holding throughout (test): NCI tumour cell line growth inhibition, 48 h
In experiment [1] the test system is SNB-19 CNS.
Experiment [2] deals with NCI-H23 lung.
For experiment [3], the system named is DU-145 prostate.
Experiment [4] relates to NCI-H460 lung.
Experiment [5] concerns MCF7 breast.
The test system of experiment [6] is OVCAR-8 ovarian.
The subject of experiment [7] is HT29 colon.
Experiment [8] concerns HS 578T breast.
Experiment [9] deals with UACC-257 melanoma.
Experiment [10] deals with OVCAR-4 ovarian.
Experiment [11] deals with SR leukemia.

Turning to `COC(=O)C(C)(N=Cc1ccccc1)c1ccccc1` (configuration not stated), the TGI in experiment [1], in experiment [2], in experiment [3], in [4], in experiment [5] and in experiment [6] was above 100 µM throughout. Besides, the TGI in experiment [7], in experiment [8], in experiment [9], in experiment [10] and in [11] was above 100 µM each time.

Regarding `CN(C)c1nc(NC23CC4CC(CC(C4)C2)C3)nc(N(C)C)n1`, the TGI in [1] is above 40.1 µM; in experiment [2], above 100 µM; in experiment [3] it was above 100 µM; in experiment [4], above 100 µM; in experiment [5], above 63.3 µM; in experiment [6], above 100 µM. Also, the TGI in experiment [7] is above 100 µM; in [8] it was 56 µM; in experiment [9] it was above 100 µM; in experiment [10], above 100 µM; in experiment [11] it was 53.9 µM.

Turning to `CCOC(=O)N1CCN(c2ccc3c(C)cc(C)nc3n2)CC1`, the TGI in experiment [1], in experiment [2], in experiment [3], in experiment [4], in experiment [5] and in experiment [6] was above 100 µM each time. Besides, the TGI in experiment [7], in experiment [8], in experiment [9], in experiment [10] and in experiment [11] was above 100 µM each time.

Consider `COC(=O)C1=C(C)NC2(O)C=CC(=O)C3C(=O)N(c4ccccc4)C(=O)C132` (configuration not stated), for which the TGI in [1], in experiment [2], in [3], in [4], in experiment [5] and in [6] was above 100 µM each time. In addition, the TGI was 70.3 µM in experiment [7]; above 100 µM in experiment [8]; above 100 µM in experiment [9]; above 100 µM in [10]; above 100 µM in [11].

Regarding `O=c1[nH]nc(-c2ccccc2)n1/N=C/c1ccncc1`, the TGI in [1], in experiment [2], in experiment [3], in experiment [4], in experiment [5] and in experiment [6] was above 100 µM in each case. For the same molecule, the TGI is above 100 µM in experiment [7]; 97.3 µM in experiment [8]; above 100 µM in experiment [9]; above 100 µM in experiment [10]; above 100 µM in experiment [11].

`Cn1ccn2c3nc4ccccc4nc3c(=O)c(C#N)c12`: the TGI in [1], in experiment [2], in experiment [3], in experiment [4], in experiment [5] and in [6] was above 100 µM in each case. Besides, the TGI in experiment [7], in [8], in experiment [9], in [10] and in [11] was above 100 µM throughout.

Take `O=C1CC(=O)c2c(O)cc(O)c(c2O)-c2c(ccc(O)c2O)C2=CC(=O)c3c(O)cc(O)c(c3O2)-c2c1ccc(O)c2O` (tested in a mixture with another compound): the TGI in experiment [1], in [2], in experiment [3], in [4], in [5] and in experiment [6] was above 50 µM each time. The TGI in [7], in [8], in experiment [9], in experiment [10] and in [11] was above 50 µM each time.

For the molecule `CCOC(=O)/C(=C\c1ccc(N(C)C)cc1)S(=O)(=O)C(F)(F)C(F)(F)C(F)(F)C(F)(F)F`, the TGI in experiment [1], in experiment [2], in experiment [3], in experiment [4], in experiment [5] and in [6] was above 100 µM throughout. Besides, the TGI in experiment [7], in experiment [8], in [9], in [10] and in [11] was above 100 µM each time.

Regarding `FC(F)(F)c1ccccc1N1CCN(c2nc(-c3cccs3)nc3ccc(Br)cc23)CC1`, the TGI in experiment [1] is above 100 µM; in experiment [2] it was above 100 µM; in experiment [3], above 100 µM; in experiment [4] it was above 100 µM; in experiment [5], 17.5 µM; in experiment [6], above 100 µM. In addition, the TGI in experiment [7], in experiment [8], in experiment [9], in experiment [10] and in experiment [11] was above 100 µM each time.

With `Clc1ccc(Cc2nc3ccc(CCN4CCN(c5ccccc5)CC4)cc3[nH]2)cc1`, the TGI in experiment [1] came to 41.6 µM; in experiment [2], 32.5 µM; in experiment [3], 44 µM; in experiment [4] it was 27.8 µM; in [5], 37.6 µM; in experiment [6], 36.3 µM. Moreover, the TGI is 22.5 µM in experiment [7]; 47.3 µM in experiment [8]; 18.8 µM in experiment [9]; 37.3 µM in experiment [10]; 36 µM in experiment [11].

With `[Se]=P(c1ccccc1)(c1ccccc1)c1ccc(C(c2ccccc2)=P(c2ccccc2)(c2ccccc2)c2ccccc2)cc1`, the TGI in [1] came to 16 µM; in experiment [2], 13.9 µM; in experiment [3], 14.5 µM; in experiment [4] it was 10.9 µM; in experiment [5], 2.93 µM; in experiment [6], 8.02 µM. The TGI is 2.17 µM in experiment [7]; 5.24 µM in experiment [8]; 5.59 µM in experiment [9]; above 33.1 µM in [10]; above 33.3 µM in experiment [11].

On to `ClC(Cl)(Cl)C1=N[C@H]2[C@H](Br)[C@@H]3O[C@@H](c4ccccc4)[C@H](c4ccccc4)O[C@@H]3[C@H]2O1`, for which the TGI was 63.9 µM in [1]; 42.3 µM in experiment [2]; 73.7 µM in [3]; 30 µM in [4]; 32.6 µM in [5]; 33.3 µM in [6]. The TGI in [7] turned out to be 58.1 µM; in experiment [8], 63.7 µM; in experiment [9], 37.3 µM; in experiment [10] it was 43.8 µM; in [11] it was 52.2 µM.
